We go through four compounds from US10638779B2, “Hemiacetyl proflavors” (FIRMENICH SA, priority 2014, dated 2020).

Series [1] in a line: Assessment of hydrolysis rate at pH 3.0 (acetaldehyde release, UV/Vis 276 nm). The note with it: for Acetaldehyde release rate relative to Comparative Samples 2-5: pH 3.0; for Half life (s) at pH 3.0 / half-life: pH 3.0 citrate buffer, stirring at 200 rpm, first order release of acetaldehyde, measured for this work; for half-life: read-out: Half life (s) at pH 3.0 (converted). It counts as physicochemical. On the procedure:
Assessment of Hydrolysis Rate at pH 3.0
Instant beverage applications require rapid hydrolysis of the precursor molecules in order to rapidly release acetaldehyde. Because such beverages might be consumed immediately upon preparation, it is desired for the release to be as rapid as possible.
A pH 3.0 buffer solution was prepared by adding 16.43 g citric acid (CAS 77-92-9) and 4.26 g disodium citrate (CAS 144-33-2) to 1 L of deionized water. Aliquots of the Examples 1, 2 and 10 preparations were added to the buffer solution within a Distek 2100B USP 2 dissolution system stirring at 200 rpm. The concentration of acetaldehyde in solution was monitored as a function of time using a UV/Vis spectrometer probe which measured absorbance at 276 nm every 1 second. Results for comparative samples were taken from work by Gassenmeier et al.. A sample of acetaldehyde diethyl acetal was also measured directly and the result was similar to that reported by Gassenmeier et al. Examples 1, 2 and 10 released acetaldehyde faster than Comparative Samples 2-5.

Series [2] is described as follows: Assessment of hydrolysis rate under spray drying feed conditions (pH 8.0 buffer/limonene emulsion). It counts as physicochemical. The settings on record: for t50 at pH 8.0 (time to 50% of the maximum absorbance): pH 8.0 phosphate buffer, 0.20 g in 0.8 g limonene added to 10 g buffer (emulsion); for t50 values relative to Comparative Sample 1: pH 8.0 emulsion. The method, then:
Assessment of Hydrolysis Rate Under Spray Driving Feed Conditions
Acetaldehyde precursors suitable for rendering into dry powders must avoid releasing significant levels of acetaldehyde during various stages of processing. In particular they should resist hydrolysis during the preparation of a spray drying feed emulsion, which can be neutral to basic pH and can contain a significant volume fraction of an oil phase.
A pH 8.0 buffer solution was prepared by adding 49.92 g disodium phosphate heptahydrate (CAS 7782-85-6) and 1.93 g monosodium phosphate (CAS 7558-80-7) to 1 L of deionised water. Aliquots of 0.20 g of the Examples 1, 2 and 10 preparations were dissolved in 0.8 g of limonene (CAS 5989-25-7) added to 10 g of the buffer solution within a 30 mL Erlenmeyer flask containing a stir bar. The concentration of acetaldehyde in solution was monitored as a function of time using a UV/Vis spectrometer probe measuring absorbance at 276 nm. Stirring was periodically stopped to allow oil droplets to rise to the surface and collect an unobscured absorbance reading of the aqueous solution. Release followed mixed zero and first order kinetics. t50 (the time to 50% of the maximum absorbance) values are reported in Table 2. Comparative Sample 1 has t50 of 2.1 minutes, which is so short that a person skilled in the art would consider this compound at risk of experiencing a problematic degree of hydrolysis during processing.

As for `CCOC(C)OC(C)=O` (stereo not drawn) [Example 10, 1-ethoxyethyl acetate, reference compound], in series [1], the “Acetaldehyde release rate relative to Comparative Samples 2-5” value is reported as “faster” and the “Half life (s) at pH 3.0” value was found to be 31 s. Further, the “t50 at pH 8.0 (time to 50% of the maximum absorbance)” value in series [2] came out at 2.1 min.
Consider `CCOC(C)OCC` [Comparative Sample 2, Acetaldehyde diethyl acetal, reference compound], for which the “Half life (s) at pH 3.0” value in series [1] came to 539 s.
`CCOC(C)OC(=O)CCCCC(=O)OC(C)OCC` (stereo not drawn) [Example 2, Bis(1-ethoxyethyl) adipate]: in series [1], the “Acetaldehyde release rate relative to Comparative Samples 2-5” value is recorded as “faster” and the half-life was 185 s. Further, in series [2], the “t50 values relative to Comparative Sample 1” value is “longer” and the “t50 at pH 8.0 (time to 50% of the maximum absorbance)” value is 44.6 min.
On to `CCOC(C)OC(=O)CCC(=O)OC(C)OCC` (stereo not drawn) [Example 1, Bis(1-ethoxyethyl) succinate], for which, in series [1], the “Acetaldehyde release rate relative to Comparative Samples 2-5” value is given as “faster” and the half-life is 96 s. In series [2], the “t50 values relative to Comparative Sample 1” value was “longer” and the “t50 at pH 8.0 (time to 50% of the maximum absorbance)” value amounted to 14.0 min.
